Results from patent US20140018376A1, “Use of 1H-Quinazoline-2,4-Diones” (priority 2009, published 2014).

System: mouse
Assay: Oral activity in vivo: audiogenic mouse test and/or MES test
Conditions: oral administration
Method: The oral bioavailability was tested using the audiogenic mouse test (Audiogenic seizures, R. L. Collins; Chapter 14, pages: 347-372. In: Experimental Models of Epilepsy; By: Pupura, Penry, Tower, Woodbury, Walter, Raven Press, New York, 1972. Standard Book Number: 0-911216-26-X) and/or the MES test.

Row | Structure (SMILES) | In vivo orally active
1 | CCCC(O)c1cc2c(=O)n(NS(C)(=O)=O)c(=O)[nH]c2cc1C(F)(F)F (stereo not drawn) [Compound A-15, N-[6-(1-Hydroxy-butyl)-2,4-dioxo-7-trifluoromethyl-1,4-dihydro-2H-quinazolin-3-yl]-methanesulfonamide] | Yes
2 | CC(OC1CCCC1)c1cc2c(=O)n(NS(C)(=O)=O)c(=O)[nH]c2cc1C(F)(F)F (stereo not drawn) [Compound A-14, N-[6-(1-Cyclopentyloxy-ethyl)-2,4-dioxo-7-trifluoromethyl-1,4-dihydro-2H-quinazolin-3-yl]-methanesulfonamide] | yes
3 | Cn1nncc1-c1cc2c(=O)n(NS(C)(=O)=O)c(=O)[nH]c2cc1C(F)(F)F [Comparative, N-(6-(1-methyl-1H-1,2,3-triazol-5-yl)-2,4-dioxo-7-trifluoromethyl-1,4-dihydro-2H-quinazolin-3-yl]-methanesulfonamide, reference compound] | No
4 | Cn1nccc1-c1cc2c(=O)n(NS(C)(=O)=O)c(=O)[nH]c2cc1C(C)(F)F [Compound C-15, N-[7-(1,1-difluoro-ethyl)-6-(2-methyl-2H-pyrazol-3-yl)-2,4-dioxo-1,4-dihydro-2H-quinazolin-3-yl]-methanesulfonamide] | Yes
5 | CCCOC(CC)c1cc2c(=O)n(NS(C)(=O)=O)c(=O)[nH]c2cc1C(F)(F)F (stereo not drawn) [Compound A-6, N-[2,4-Dioxo-6-(1-propoxy-propyl)-7-trifluoromethyl-1,4-dihydro-2H-quinazolin-3-yl]-methanesulfonamide] | Yes
6 | CC(C)n1nccc1-c1cc2c(=O)n(NS(C)(=O)=O)c(=O)[nH]c2cc1CF [Compound C-3, N-[7-Fluoromethyl-6-(2-isopropyl-2H-pyrazol-3-yl)-2,4-dioxo-1,4-dihydro-2H-quinazolin-3-yl]-methanesulfonamide] | Yes
7 | CCc1cc2[nH]c(=O)n(NS(C)(=O)=O)c(=O)c2cc1-c1ccnn1C [Compound C-11, N-[7-Ethyl-6-(2-methyl-2H-pyrazol-3-yl)-2,4-dioxo-1,4-dihydro-2H-quinazolin-3-yl]-methanesulfonamide] | Yes
8 | COCCn1nccc1-c1cc2c(=O)n(NS(C)(=O)=O)c(=O)[nH]c2cc1C(C)C [Compound C-1, N-{7-Isopropyl-6-[2-(2-methoxy-ethyl)-2H-pyrazol-3-yl]-2,4-dioxo-1,4-dihydro-2H-quinazolin-3-yl}-methanesulfonamide] | yes
9 | CCC(OC(C)C)c1cc2c(=O)n(NS(C)(=O)=O)c(=O)[nH]c2cc1C(F)(F)F (stereo not drawn) [Compound A-7, N-[6-(1-isopropoxy-propyl)-2,4-dioxo-7-trifluoromethyl-1,4-dihydro-2H-quinazolin-3-yl]-methanesulfonamide] | Yes
10 | CS(=O)(=O)Nn1c(=O)[nH]c2cc(C(F)(F)F)c(C3CCCO3)cc2c1=O (stereo not drawn) [Compound B-2, N-[2,4-Dioxo-6-(tetrahydro-furan-2-yl)-7-trifluoromethyl-1,4-dihydro-2H-quinazolin-3-yl]-methanesulfonamide] | Yes
11 | COC(C)c1cc2c(=O)n(NS(C)(=O)=O)c(=O)[nH]c2cc1C(F)(F)F (stereo not drawn) [Compound A-2, N-[6-(1-Methoxy-ethyl)-2,4-dioxo-7-trifluoromethyl-1,4-dihydro-2H-quinazolin-3-yl]-methanesulfonamide] | Yes
12 | CCOC(C)c1cc2c(=O)n(NS(C)(=O)=O)c(=O)[nH]c2cc1C(F)(F)F (stereo not drawn) [Compound A-5, N-[6-(1-Ethoxy-ethyl)-2,4-dioxo-7-trifluoromethyl-1,4-dihydro-2H-quinazolin-3-yl]-methanesulfonamide] | Yes
13 | CS(=O)(=O)Nn1c(=O)[nH]c2cc(C(F)(F)F)c(C3CCOC3)cc2c1=O (stereo not drawn) [Compound B-3, N-[2,4-Dioxo-6-(tetrahydro-furan-3-yl)-7-trifluoromethyl-1,4-dihydro-2H-quinazolin-3-yl]-methanesulfonamide] | Yes
14 | COCCC(O)c1cc2c(=O)n(NS(C)(=O)=O)c(=O)[nH]c2cc1C(F)(F)F (stereo not drawn) [Compound A-18, N-[6-(1-Hydroxy-3-methoxy-propyl)-2,4-dioxo-7-trifluoromethyl-1,4-dihydro-2H-quinazolin-3-yl]-methanesulfonamide] | Yes
15 | CC(C)OC(C)c1cc2c(=O)n(NS(C)(=O)=O)c(=O)[nH]c2cc1C(F)(F)F (stereo not drawn) [Compound A-4, N-[6-(1-Isopropoxy-ethyl)-2,4-dioxo-7-trifluoromethyl-1,4-dihydro-2H-quinazolin-3-yl]-methanesulfonamide] | Yes
16 | CS(=O)(=O)Nn1c(=O)[nH]c2cc(C(F)(F)F)c(-c3ccnn3O)cc2c1=O [Compound C-5, N-[6-(2-Hydroxy-2H-pyrazol-3-yl)-2,4-dioxo-7-trifluoromethyl-1,4-dihydro-2H-quinazolin-3-yl]-methanesulfonamide] | Yes
17 | CC(C)n1nccc1-c1cc2c(=O)n(NS(C)(=O)=O)c(=O)[nH]c2cc1C(F)F [Compound C-10, N-[7-Difluoromethyl-6-(2-isopropyl-2H-pyrazol-3-yl)-2,4-dioxo-1,4-dihydro-2H-quinazolin-3-yl]-methanesulfonamide] | Yes
18 | Cn1nccc1-c1cc2c(=O)n(NS(C)(=O)=O)c(=O)[nH]c2cc1C(F)(F)F [Compound C-18, N-[6-(2-Methyl-2H-pyrazol-3-yl)-2,4-dioxo-7-trifluoromethyl-1,4-dihydro-2H-quinazolin-3-yl]-methanesulfonamide] | Yes
19 | CCc1cc2[nH]c(=O)n(NS(C)(=O)=O)c(=O)c2cc1-c1ccnn1C(C)C [Compound C-6, N-[7-Ethyl-6-(2-isopropyl-2H-pyrazol-3-yl)-2,4-dioxo-1,4-dihydro-2H-quinazolin-3-yl]-methanesulfonamide] | Yes
20 | CC(C)c1cc2[nH]c(=O)n(NS(C)(=O)=O)c(=O)c2cc1-c1ccnn1C(C)C [Compound C-8, N-[7-Isopropyl-6-(2-isopropyl-2H-pyrazol-3-yl)-2,4-dioxo-1,4-dihydro-2H-quinazolin-3-yl]-methanesulfonamide] | yes
21 | CC(C)n1nccc1-c1cc2c(=O)n(NS(C)(=O)=O)c(=O)[nH]c2cc1C(F)(F)F [Compound C-2, N-[6-(2-Isopropyl-2H-pyrazol-3-yl)-2,4-dioxo-7-trifluoromethyl-1,4-dihydro-2H-quinazolin-3-yl]-methanesulfonamide] | Yes
22 | COCCn1nccc1-c1cc2c(=O)n(NS(C)(=O)=O)c(=O)[nH]c2cc1C(F)(F)F [Compound C-4, N-{6-[2-(2-Methoxy-ethyl)-2H-pyrazol-3-yl]-2,4-dioxo-7-trifluoromethyl-1,4-dihydro-2H-quinazolin-3-yl}-methanesulfonamide] | Yes
23 | CC(F)c1cc2[nH]c(=O)n(NS(C)(=O)=O)c(=O)c2cc1-c1ccnn1C(C)C (stereo not drawn) [Compound C-17, N-[7-(1-fluoro-ethyl)-6-(2-isopropyl-2H-pyrazol-3-yl)-2,4-dioxo-1,4-dihydro-2H-quinazolin-3-yl]-methanesulfonamide] | Yes
24 | CC(O)c1cc2c(=O)n(NS(C)(=O)=O)c(=O)[nH]c2cc1C(F)(F)F (stereo not drawn) [Compound A-1, N-[6-(1-Hydroxy-ethyl)-2,4-dioxo-7-trifluoromethyl-1,4-dihydro-2H-quinazolin-3-yl]-methanesulfonamide] | Yes
25 | CC(C)c1cc2[nH]c(=O)n(NS(C)(=O)=O)c(=O)c2cc1-c1ccnn1C [Compound C-7, N-[7-Isopropyl-6-(2-methyl-2H-pyrazol-3-yl)-2,4-dioxo-1,4-dihydro-2H-quinazolin-3-yl]-methanesulfonamide] | Yes
26 | CCC(O)c1cc2c(=O)n(NS(C)(=O)=O)c(=O)[nH]c2cc1C(F)(F)F (stereo not drawn) [Compound A-3, N-[6-(1-Hydroxy-propyl)-2,4-dioxo-7-trifluoromethyl-1,4-dihydro-2H-quinazolin-3-yl]-methanesulfonamide] | Yes
27 | Cn1nccc1-c1cc2c(=O)n(NS(C)(=O)=O)c(=O)[nH]c2cc1C(F)F [Compound C-9, N-[7-Difluoromethyl-6-(2-methyl-2H-pyrazol-3-yl)-2,4-dioxo-1,4-dihydro-2H-quinazolin-3-yl]-methanesulfonamide] | Yes
28 | CC(C)n1nccc1-c1cc2c(=O)n(NS(C)(=O)=O)c(=O)[nH]c2cc1C(C)(F)F [Compound C-16, N-[7-(1,1-difluoro-ethyl)-6-(2-isopropyl-2H-pyrazol-3-yl)-2,4-dioxo-1,4-dihydro-2H-quinazolin-3-yl]-methanesulfonamide] | Yes
29 | CCOC(CC)c1cc2c(=O)n(NS(C)(=O)=O)c(=O)[nH]c2cc1C(F)(F)F (stereo not drawn) [Compound A-13, N-[6-(1-Ethoxy-propyl)-2,4-dioxo-7-trifluoromethyl-1,4-dihydro-2H-quinazolin-3-yl]-methanesulfonamide] | Yes
30 | CCc1cc2[nH]c(=O)n(NS(C)(=O)=O)c(=O)c2cc1-c1ccnn1CC [Compound C-12, N-[7-Ethyl-6-(2-ethyl-2H-pyrazol-3-yl)-2,4-dioxo-1,4-dihydro-2H-quinazolin-3-yl]-methanesulfonamide] | Yes
